Reference: patent publication US10219513B2, “Safening 4-amino-3-chloro-6-(4-chloro-2-fluoro-3-methoxyphenyl)-5-fluoropyridine-2-carboxylic acid compositions in Brassica species and methods of use thereof” (Dow AgroSciences LLC, priority 2016, dated 2019)

Tests used:
[1] = tested on: Brassica napus (Roundup Ready canola, RR-BRSNN); test: Greenhouse postemergence application, visual injury after 20-22 d, RR-BRSNN
Description: (§1) Seeds of the desired test plant species were planted in Sun Gro MetroMix® 306 planting mixture, which typically has a pH of 6.0 to 6.8 and an organic matter content of about 30 percent, in plastic pots with a surface area of 103.2 square centimeters (cm^2). […] The plants were grown for 7-36 days (d) in a greenhouse with an approximate 14-hour (h) photoperiod which was maintained at about 23° C. during the day and 22° C. during the night. Nutrients and water were added on a regular basis and supplemental lighting was provided with overhead metal halide 1000-Watt lamps as necessary. The plants were employed for testing when they reached the second or third true leaf stage.
(§2) An aliquot of formulated benzyl 4-amino-3-chloro-6-(4-chloro-2-fluoro-3-methoxyphenyl)-5-fluoropyridine-2-carboxylate (florpyrauxifen-benzyl; 300 grams active ingredient per liter (g ai/L) suspension concentrate (SC)) was placed in a 25 mL glass vial and diluted in a volume of 1.25% (v/v) aqueous Agri-dex crop oil concentrated to obtain a stock solution. […] The concentrated stock solutions were diluted with an aqueous mixture of 1.25% v/v of aqueous Agri-dex crop oil concentrate to provide the appropriate application rates. Compound requirements are based upon a 12 milliliter (mL) application volume at a rate of 187 liters per hectare (L/ha). Stock solutions of the formulated materials were prepared following the same procedure. Spray solutions of the compound mixtures were prepared by adding the stock solutions to the appropriate amount of dilution solution to form a 12 mL spray solution. Formulated compounds were applied to the plant material with an overhead Mandel track sprayer equipped with 8002E nozzles calibrated to deliver 187 L/ha over an application area of 0.503 square meters (m^2) at a spray height of 18 inches (43 centimeters (cm)) above average plant canopy. Control plants were sprayed in the same manner with the solvent blank.
(§3) The treated plants and control plants were placed in a greenhouse as described above and watered by sub-irrigation to prevent wash-off of the test compounds. After 20-22 d, the condition of the test plants as compared with that of the control plants was determined visually and scored on a scale of 0 to 100 percent where 0 corresponds to no injury and 100 corresponds to complete kill. Colby's equation was used to determine the herbicidal effects expected from the mixtures.
(§4) Benzyl 4-amino-3-chloro-6-(4-chloro-2-fluoro-3-methoxyphenyl)-5-fluoropyridine-2-carboxylate (florpyrauxifen-benzyl, 300 g ai/L SC) was combined in two-, three-, and four-way mixtures with one or more of the following: clopyralid-olamine (as Lontrel™ 35A Herbicidal Concentrate), quinclorac (as Facet 75DF), isoxadifen-ethyl (100 g/L SC), cloquintocet-mexyl (120 g/L EC) or mefenpyr-diethyl (as mefenpyr-diethyl 15WP). The mixtures were applied to kale/Chinese kale (Brassica alboglabra, BRSAG), Juncea canola or brown mustard (Brassica juncea, BRSJU), rutabaga (Brassica napus var. napobrassica, BRSNA), all varieties of canola and oilseed rape (Brassica napus, BRSNN), Nexera™ canola (Brassica napus, BRSNN-NEX), winter oilseed rape (Brassica napus, BRSNW), Roundup Ready® canola (Brassica napus, RR-BRSNN), and turnip or Polish canola (Brassica rapa, BRSRR), and the phytotoxicity of the compositions was measured.
(§5) Colby's equation was used to determine the herbicidal effects expected from the mixtures evaluated in the described trials (Colby, S. R. Calculation of the synergistic and antagonistic response of herbicide combinations. Weeds 1967, 15, 20-22.).
(§6) The following equation was used to calculate the expected activity of mixtures containing two active ingredients, A and B: Expected=A+B−(A×B/100) • A=observed efficacy of active ingredient A at the same concentration as used in the mixture; • B=observed efficacy of active ingredient B at the same concentration as used in the mixture.

[2] = tested on: Brassica juncea (Juncea canola or brown mustard, BRSJU); test: Greenhouse postemergence application, visual injury after 20-22 d, BRSJU
Description: as §1, §2, §3, §4, §5, §6

[3] = tested on: Brassica napus (all varieties of canola and oilseed rape, BRSNN); test: Greenhouse postemergence application, visual injury after 20-22 d, BRSNN
Description: as §1, §2, §3, §4, §5, §6

[4] = tested on: Brassica napus (winter oilseed rape, BRSNW); test: Greenhouse postemergence application, visual injury after 20-22 d, BRSNW
Description: as §1, §2, §3, §4, §5, §6

[5] = tested on: Brassica alboglabra (kale/Chinese kale, BRSAG); test: Greenhouse postemergence application, visual injury after 20-22 d, BRSAG
Description: as §1, §2, §3, §4, §5, §6

[6] = isoxadifen-ethyl 5 g ai/ha alone
[7] = isoxadifen-ethyl 10 g ai/ha alone
[8] = isoxadifen-ethyl 20 g ai/ha alone
[9] = isoxadifen-ethyl 40 g ai/ha alone
[10] = postemergence application, greenhouse, application rate (g ai/ha) varies

CCOC(=O)C1=NOC(c2ccccc2)(c2ccccc2)C1 [Isoxadifen-ethyl, ethyl 4,5-dihydro-5,5-diphenyl-1,2-oxazole-3-carboxyalte]
0%: % Visual Injury Obs ([1]; RR-BRSNN, 5 g ai/ha) | % Visual Injury Obs ([1]; RR-BRSNN, 10 g ai/ha) | % Visual Injury Obs ([1]; RR-BRSNN, 20 g ai/ha) | % Visual Injury Obs ([1]; RR-BRSNN, 40 g ai/ha) | Obs % visual injury ([1]; RR-BRSNN, partner alone 5 g ai/ha) | Obs % visual injury ([1]; RR-BRSNN, partner alone 10 g ai/ha) | Obs % visual injury ([1]; RR-BRSNN, partner alone 20 g ai/ha) | Obs % visual injury ([1]; RR-BRSNN, partner alone 40 g ai/ha) | % Visual Injury Obs [1, 6] | % Visual Injury Obs [1, 7] | % Visual Injury Obs [1, 8] | % Visual Injury Obs [1, 9] | % Visual Injury RR-BRSNN Obs [1, 10] | % Visual Injury Obs ([2]; BRSJU, 5 g ai/ha) | % Visual Injury Obs ([2]; BRSJU, 10 g ai/ha) | % Visual Injury Obs ([2]; BRSJU, 20 g ai/ha) | % Visual Injury Obs ([2]; BRSJU, 40 g ai/ha) | Obs % visual injury ([2]; BRSJU, partner alone 5 g ai/ha) | Obs % visual injury ([2]; BRSJU, partner alone 10 g ai/ha) | Obs % visual injury ([2]; BRSJU, partner alone 20 g ai/ha) | Obs % visual injury ([2]; BRSJU, partner alone 40 g ai/ha) | % Visual Injury Obs [2, 6] | % Visual Injury Obs [2, 7] | % Visual Injury Obs [2, 8] | % Visual Injury Obs [2, 9] | % Visual Injury BRSJU Obs [2, 10] | % Visual Injury Obs ([3]; BRSNN, 5 g ai/ha) | % Visual Injury Obs ([3]; BRSNN, 10 g ai/ha) | % Visual Injury Obs ([3]; BRSNN, 20 g ai/ha) | % Visual Injury Obs ([3]; BRSNN, 40 g ai/ha) | Obs % visual injury ([3]; BRSNN, partner alone 5 g ai/ha) | Obs % visual injury ([3]; BRSNN, partner alone 10 g ai/ha) | Obs % visual injury ([3]; BRSNN, partner alone 20 g ai/ha) | Obs % visual injury ([3]; BRSNN, partner alone 40 g ai/ha) | % Visual Injury Obs [3, 6] | % Visual Injury Obs [3, 7] | % Visual Injury Obs [3, 8] | % Visual Injury Obs [3, 9] | % Visual Injury BRSNN Obs [3, 10] | % Visual Injury Obs ([4]; BRSNW, 5 g ai/ha) | % Visual Injury Obs ([4]; BRSNW, 10 g ai/ha) | % Visual Injury Obs ([4]; BRSNW, 20 g ai/ha) | % Visual Injury Obs ([4]; BRSNW, 40 g ai/ha) | Obs % visual injury ([4]; BRSNW, partner alone 5 g ai/ha) | Obs % visual injury ([4]; BRSNW, partner alone 10 g ai/ha) | Obs % visual injury ([4]; BRSNW, partner alone 20 g ai/ha) | Obs % visual injury ([4]; BRSNW, partner alone 40 g ai/ha) | % Visual Injury Obs [4, 6] | % Visual Injury Obs [4, 7] | % Visual Injury Obs [4, 8] | % Visual Injury Obs [4, 9] | % Visual Injury BRSNW Obs [4, 10] | % Visual Injury Obs ([5]; BRSAG, 5 g ai/ha) | % Visual Injury Obs ([5]; BRSAG, 10 g ai/ha) | % Visual Injury Obs ([5]; BRSAG, 20 g ai/ha) | % Visual Injury Obs ([5]; BRSAG, 40 g ai/ha) | Obs % visual injury ([5]; BRSAG, partner alone 5 g ai/ha) | Obs % visual injury ([5]; BRSAG, partner alone 10 g ai/ha) | Obs % visual injury ([5]; BRSAG, partner alone 20 g ai/ha) | Obs % visual injury ([5]; BRSAG, partner alone 40 g ai/ha) | % Visual Injury Obs [5, 6] | % Visual Injury Obs [5, 7] | % Visual Injury Obs [5, 8] | % Visual Injury Obs [5, 9] | % Visual Injury BRSAG Obs [5, 10]

O=C(O)c1c(Cl)ccc2cc(Cl)cnc12 [Quinclorac, 3,7-dichloro-8-quinolinecarboxylic acid]
0%: % Visual Injury Obs ([1]; RR-BRSNN, 50 g ai/ha) | % Visual Injury Obs ([1]; RR-BRSNN, 100 g ai/ha) | % Visual Injury Obs ([1]; RR-BRSNN, 200 g ai/ha) | Obs % visual injury ([1]; RR-BRSNN, partner alone 50 g ai/ha) | Obs % visual injury ([1]; RR-BRSNN, partner alone 100 g ai/ha) | Obs % visual injury ([1]; RR-BRSNN, partner alone 200 g ai/ha) | % Visual Injury RR-BRSNN Obs [1, 10] | % Visual Injury RR-BRSNN Obs ([1]; quinclorac 50 g ai/ha alone) | % Visual Injury RR-BRSNN Obs ([1]; quinclorac 100 g ai/ha alone) | % Visual Injury RR-BRSNN Obs ([1]; quinclorac 200 g ai/ha alone) | % Visual Injury Obs ([2]; BRSJU, 50 g ai/ha) | % Visual Injury Obs ([2]; BRSJU, 100 g ai/ha) | % Visual Injury Obs ([2]; BRSJU, 200 g ai/ha) | Obs % visual injury ([2]; BRSJU, partner alone 50 g ai/ha) | Obs % visual injury ([2]; BRSJU, partner alone 100 g ai/ha) | Obs % visual injury ([2]; BRSJU, partner alone 200 g ai/ha) | % Visual Injury BRSJU Obs [2, 10] | % Visual Injury BRSJU Obs ([2]; quinclorac 50 g ai/ha alone) | % Visual Injury BRSJU Obs ([2]; quinclorac 100 g ai/ha alone) | % Visual Injury BRSJU Obs ([2]; quinclorac 200 g ai/ha alone) | % Visual Injury Obs ([3]; BRSNN, 50 g ai/ha) | % Visual Injury Obs ([3]; BRSNN, 100 g ai/ha) | % Visual Injury Obs ([3]; BRSNN, 200 g ai/ha) | Obs % visual injury ([3]; BRSNN, partner alone 50 g ai/ha) | Obs % visual injury ([3]; BRSNN, partner alone 100 g ai/ha) | Obs % visual injury ([3]; BRSNN, partner alone 200 g ai/ha) | % Visual Injury BRSNN Obs [3, 10] | % Visual Injury BRSNN Obs ([3]; quinclorac 50 g ai/ha alone) | % Visual Injury BRSNN Obs ([3]; quinclorac 100 g ai/ha alone) | % Visual Injury BRSNN Obs ([3]; quinclorac 200 g ai/ha alone) | % Visual Injury Obs ([4]; BRSNW, 50 g ai/ha) | % Visual Injury Obs ([4]; BRSNW, 100 g ai/ha) | % Visual Injury Obs ([4]; BRSNW, 200 g ai/ha) | Obs % visual injury ([4]; BRSNW, partner alone 50 g ai/ha) | Obs % visual injury ([4]; BRSNW, partner alone 100 g ai/ha) | Obs % visual injury ([4]; BRSNW, partner alone 200 g ai/ha) | % Visual Injury BRSNW Obs [4, 10] | % Visual Injury BRSNW Obs ([4]; quinclorac 50 g ai/ha alone) | % Visual Injury BRSNW Obs ([4]; quinclorac 100 g ai/ha alone) | % Visual Injury BRSNW Obs ([4]; quinclorac 200 g ai/ha alone) | % Visual Injury Obs ([5]; BRSAG, 50 g ai/ha) | % Visual Injury Obs ([5]; BRSAG, 100 g ai/ha) | % Visual Injury Obs ([5]; BRSAG, 200 g ai/ha) | Obs % visual injury ([5]; BRSAG, partner alone 50 g ai/ha) | Obs % visual injury ([5]; BRSAG, partner alone 100 g ai/ha) | Obs % visual injury ([5]; BRSAG, partner alone 200 g ai/ha) | % Visual Injury BRSAG Obs [5, 10] | % Visual Injury BRSAG Obs ([5]; quinclorac 50 g ai/ha alone) | % Visual Injury BRSAG Obs ([5]; quinclorac 100 g ai/ha alone) | % Visual Injury BRSAG Obs ([5]; quinclorac 200 g ai/ha alone)
